Target: Complement factor I (Homo sapiens) (UniProt P05156)
Test: In vitro activity against human Complement factor I

Complement factor I (Homo sapiens), sequence (P05156 whole entry, looked up): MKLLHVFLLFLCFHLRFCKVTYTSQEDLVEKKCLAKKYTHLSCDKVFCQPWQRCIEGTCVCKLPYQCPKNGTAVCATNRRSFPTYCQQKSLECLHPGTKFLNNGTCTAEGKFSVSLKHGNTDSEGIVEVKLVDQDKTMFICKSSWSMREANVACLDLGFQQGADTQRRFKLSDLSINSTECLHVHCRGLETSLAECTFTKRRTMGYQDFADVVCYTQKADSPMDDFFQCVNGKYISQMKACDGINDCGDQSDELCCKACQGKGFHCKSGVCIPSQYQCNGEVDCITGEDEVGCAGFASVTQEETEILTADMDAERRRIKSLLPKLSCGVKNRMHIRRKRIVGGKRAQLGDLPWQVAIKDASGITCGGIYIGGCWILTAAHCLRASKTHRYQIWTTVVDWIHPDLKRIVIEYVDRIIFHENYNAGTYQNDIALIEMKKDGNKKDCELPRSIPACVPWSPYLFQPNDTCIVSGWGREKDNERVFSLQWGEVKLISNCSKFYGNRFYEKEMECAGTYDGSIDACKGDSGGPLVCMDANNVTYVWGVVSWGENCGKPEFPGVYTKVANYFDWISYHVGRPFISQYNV

Compound: CS(=O)(=O)c1ccccc1-c1ccc(NC(=O)c2cc(C(F)(F)F)nn2-c2cccc(CN)c2)c(F)c1
- IC50: 44 µM

Reference: BindingDB's records for doi:10.1021/jm000409z (Dupont Pharmaceuticals, 2001)
